“Also recorded” adds a separate entry of the source.
Tests used:
[1] = test system: stage 4 neural stem cells; assay: factor criticality analysis of stage 5 recipe; type: cell-based, human; details: for effect on expression of somatostatin: FIG. 28; for contribution to expression of PVALB (Parvalbumin): FIG. 28-30
Experimental: To assess the impact of elimination of each validated factor, we again used dynamic profile analysis and compared the expression level of genes of interest in the absence of each finalized factor while others are present.
In the stage 5 recipe, each of seven finalized factors were removed while other factors were kept present and expression levels of PVALB and SST were assessed compared to the presence of all seven factors. […] 2-phospho-L-ascorbic acid, BDNF, IGF-1 were included in the stage 5 recipe (FIG. 28). […] Others were also found to increase the expression of somatostatin that was SST interneuron marker. So, they are excluded from the recipe and N2 was included in the stage 5 recipe (FIG. 29). […] Sodium pyruvate was included in the stage 5 recipe (FIG. 30).

[2] = test system: cells after termination of stage 4 treatment; assay: HD-DoE 8-factor experiment for stage 5 recipe (JQ1, Indolactam-V, Oleic acid, BDNF, IGF-1, 2-phospho-L-Ascorbic acid, Albumax, MK2206), optimized for PVALB; type: cell-based, human; details: for factor contribution on expression of PVALB: important input for maximum expression of PVALB, FIG. 21; for impact on expression of PVALB: model maximized for PVALB / dynamic profile, FIG. 21 and 22
Text: To further guide the differentiation of forebrain-committed neural stem cells to PVALB interneuron cells at stage 5, we performed a HD-DoE experiment for 3 days after termination of stage 4 treatment. At this time, we focused on maximum expression of PVALB that was expressed in Parvalbumin (+) interneurons and minimum expression of Somatostatin that is another type of interneurons. This 8-factor experiment included JQ1, Indolactam-V, Oleic acid, BDNF, IGF-1, 2-phospho-L-Ascorbic acid, Albumax, MK2206. […] Using dynamic profile analysis, we modified the model to achieve the maximum expression level of PVALB simultaneously and therefore 2-phospho-L-ascorbic acid, BDNF, IGF1 were included while MK2206, Albumax, and JQ1 are excluded (FIG. 22). Considering the model at different optimization settings for maximum differentiation of cells toward ventral forebrain, the recipe for stage 5 of differentiation included BDNF, IGF-1, 2-phospho-L-ascorbic acid from this HD-Doe experiment.

[3] = test system: forebrain-committed neural stem cells (stage 1 neural stem cells); assay: HD-DoE 12-factor experiment for stage 2 recipe, optimized for NKX2-1; type: cell-based, human; details: model maximized for NKX2-1 / dynamic profile, FIG. 7 and 8
Experimental: To further guide the differentiation of forebrain-committed neural stem cells to ventral forebrain neural stem cells at stage 2, a HD-DoE experiment was performed for 3 days after termination of stage 1 treatment. At this time, we focused on maximum expression of NKX2-1 that is expressed in ventral forebrain region and minimum expression of PAX6 that is expressed in dorsal forebrain region. This 12-factor experiment included LDN193189, BMP7, PD0325901, MK2206, A8301, XAV939, CHIR99021, Purmorphamine, SANT-1, AGN193109, TTNPB and GSI-XX.

[4] = test system: human pluripotent stem cells; assay: HD-DoE 12-factor experiment for stage 1 recipe, gene expression by quantitative PCR after 3 days; type: cell-based; details: for factor contribution on expression of OTX2: model of maximum expression of OTX2
Text: This example utilizes a method of High-Dimensional Design of Experiments (HD-DoE), as previously described in Bukys et al. (2020) […] 23:101346. The method employs computerized design geometries to simultaneously test multiple process inputs and offers mathematical modeling of a deep effector/response space. The method allows for finding combinatorial signaling inputs that control a complex process, such as during cell differentiation. It allows testing of multiple plausible critical process parameters, as such parameters impact output responses, such as gene expression. Because gene expression provides hallmark features of the phenotype of, for example, a human cell, the method can be applied to identify, and understand, which signaling pathways control cell fate. In the current example, the HD-DOE method was applied with the intent to find conditions for induction of […] neural progenitor-expressed genes, directly from the pluripotent stem cell state. To develop the recipe for each stage, the impact of agonists and antagonists of multiple signaling pathways (herein called effectors) on the expression of two sets of 53 pre-selected genes, after a 3-day treatment, has been tested and modeled. These effectors are small molecules or proteins that are commonly used during stepwise differentiation of stem cells to specific fates. Choice of the effectors were based on current literature on neural induction in forebrain region of developing brain and differentiation of stem cells to neural progenitors. To test the effectors, experiments with at least 8 factors were designed that can assess the response of cells to 48 or more different combinations of effectors in a range of concentrations. To analyze the models, we focused on expression of genes involved in development and patterning of the anterior neuroectoderm and forebrain including OTX2 (Hoch et al. (2015) Cell Reports 12:482-494), SIX3 (Lagutin et al. (2003) Genes & Development 17:368-379) and FEZF2 (Zhang et al. (2014) Development 141:4794-[…]). At later stages we focused on dorsoventral patterning of telencephalon and gene expressed in ventral forebrain including NKX2-1 and absence of PAX6 which is a dorsal forebrain marker (Stoykova et al. (2000) J. Neurosci. 20:8042-8050). The impact of each effector on gene expression level is defined by a parameter called factor contribution that is calculated for each effector during the modeling. To identify the recipe for stage 1 of differentiation, 96 different combinations of effectors generated using Design-of-Experiments compression through D-optimality were robotically prepared. The effector combinations were prepared in a basal media and were subsequently added to the cells, which were then allowed to differentiate. Three days later RNA extraction was performed, and gene expression was obtained using quantitative PCR analysis. […] Solutions within the tested space could then be explored to address desirability. Optimizing for maximal expression of SIX3 at 3300 and FEZF2 1355 expression values led to robust solutions. This model was derived from testing 12 effectors including AGN193109, LDN193189, CHIR99021, XAV939, IGF2, Purmorphamine, 4-oxo-RA, TTNPB, SR11237, FGF8, PD0325901 and […]. […] The model was also optimized for maximum expression of FEZF2 separately at 3576 expression value to find any additional factors that can boost expression of forebrain genes. […] To find the set of factors that have the potential to optimize all 3 genes in this experiment, a new assessment was done through dynamic profile analysis with focus on maximal expression of OTX2, FEZF2 and SIX3.

[5] = test system: human pluripotent stem cells; assay: factor criticality analysis (dynamic profile analysis) of stage 1 recipe; type: cell-based; design: unit not given here; details: other five factors present; for expression level of FEZF2 when the effector is removed: 2000 with all six factors; for expression level of SIX3 when the effector is removed: 3000 with all six factors; for expression level of OTX2 when the effector is removed: 5500 with all six factors
Experimental: (§1) To assess the impact of the elimination of each validated factor, dynamic profile analysis was used and compared the expression level of genes of interest in absence of each finalized factor while others are present.
In the stage 1 recipe, each of the six finalized factors were removed individually while the other five factors were present and expression levels of forebrain genes was assessed compared to the presence of all six factors together. The results are summarized in FIG. 11A-B. When LDN193189 was removed, expression levels of FEZF2, OTX2 and SIX3 were decreased drastically from 2000 to 1000, 5500 to 4000 and 3000 to 0, respectively. […] When Purmorphamine was removed, levels of FEZF2 and SIX3 were decreased to 1000 and below 3000, while levels of OTX2 increased to 6500.

[6] = test system: forebrain-committed neural stem cells (stage 1 neural stem cells); assay: factor criticality analysis (dynamic profile analysis) of stage 2 recipe; type: cell-based, human; details: stage 2 recipe, other three factors present; for expression level of PAX6 in the absence of the effector: 0 with all four factors; for expression level of NKX2-2 in the absence of the effector: 100 with all four factors; for expression level of NKX2-1 in the absence of the effector: 5000 with all four factors
Experimental: as §1
In the stage 2 recipe, each of the four finalized factors were removed while the other three factors remained present and expression levels of NKX2-1, PAX6 and NKX2-2 were assessed compared to presence of all four factors. The results are summarized in FIG. 13A-B. Absence of PD0325901 reduced the levels of NKX2-1 and NKX2-2 while increasing PAX6 from 5000 to 3200, 100 to 0 and 0 to 5000, respectively. […] Removing XAV939 reduced the levels of NKX2-1 from 5000 to 3000, while increasing both PAX6 and NKX2-2 to 10000 and 200, respectively. Another observation was the interaction between XAV939 and Purmorphamine. In the absence of XAV939, the impact of Purmorphamine on NKX2-1 became negative and, as it is shown in interaction plot of FIG. 14, the level of NKX2-1 is higher when both factors are present.

[7] = test system: human pluripotent stem cells; assay: additional HD-DoE experiment for stage 1 (forebrain differentiation from pluripotency), optimized for FEZF2; type: cell-based; details: for impact on expression of FEZF2: dynamic profile, FIG. 6; for factor contribution on expression of FEZF2: positive impact, additional stage 1 experiment optimized for FEZF2, FIG. 5
Experimental: To identify the recipe for stage 1 of differentiation, 96 different combinations of effectors generated using Design-of-Experiments compression through D-optimality were robotically prepared. The effector combinations were prepared in a basal media and were subsequently added to the cells, which were then allowed to differentiate. Three days later RNA extraction was performed, and gene expression was obtained using quantitative PCR analysis. The data were normalized and modeled using partial least squares regression analysis to the effector design, resulting in the generation of gene-specific models, which after model tuning for maximal Q2 predictive power, provided explanation of the effectors ability to control the expression of individual genes, combinatorially, and individually. Solutions within the tested space could then be explored to address desirability.
To further enhance the conditions for forebrain differentiation from pluripotency, an additional HD-DoE experiment was performed. Additional gene regulatory models were obtained that were used for preparation of the differentiation protocol. The factors in this experiment included LDN193189, PD173074, BLU9931, Purmorphamine, SC79, MK2206, ZM336372, PD0325901, CHIR99021, XAV939, UCLA-GP130, Tofacitinib and GO6983. […] Dynamic profile analysis was also used to assess the interaction between the effectors.

Molecule: O=C1O[C@H]([C@@H](O)CO)C(O)=C1OP(=O)(O)O [2-phospho-L-ascorbic acid]
- effect on expression of somatostatin [1]: did not change
- contribution to expression of PVALB (Parvalbumin) [1]: positive contribution
- factor contribution on expression of PVALB [2]: 15.04
- impact on expression of PVALB [2]: increase its expression level
- impact on expression of PVALB ([2]; listed as 2-phospho-L-Ascorbic acid): positive impact

Molecule: CC(C)[C@H]1C(=O)N[C@H](CO)Cc2c[nH]c3cccc(c23)N1C [Indolactam-V]
- impact on expression of PVALB [2]: increase its expression level; also recorded: positive impact

Molecule: CCCCCCCC/C=C\CCCCCCCC(=O)OC[C@@H](O)COP(=O)(O)O [O-LPA, 1-Oleoyl lysophosphatidic acid]
- contribution to expression of GAD1 ([1]; FIG. 31): contribute to the expression
- contribution to expression of LHX6 ([1]; FIG. 31): contribute to the expression

Molecule: CCCCCCCC/C=C\CCCCCCCC(=O)O [Oleic acid]
- impact on expression of PVALB [2]: increase its expression level; also recorded: positive impact

Molecule: O=C(NOC[C@H](O)CO)c1ccc(F)c(F)c1Nc1ccc(I)cc1F [PD0325901]
- impact on expression of NKX2-1 [3]: increase its expression level; also recorded: Positive impact
- factor contribution on expression of OTX2 ([4]; positive impact): low
- factor contribution on expression of FEZF2 ([4]; positive impact, model optimized for maximum expression of FEZF2): 10
- expression level of FEZF2 when the effector is removed [5]: drop
- expression level of SIX3 when the effector is removed [5]: did not have a significant impact
- expression level of OTX2 when the effector is removed [5]: did not have a significant impact
- expression level of PAX6 in the absence of the effector [6]: 5000
- expression level of NKX2-2 in the absence of the effector [6]: 0
- expression level of NKX2-1 in the absence of the effector [6]: 3200
- impact on expression of FEZF2 [7]: positive impact
- factor contribution on expression of FEZF2 [7]: 15

Molecule: Oc1nc(-c2ccc(C(F)(F)F)cc2)nc2c1CSCC2 [XAV939]
- impact on expression of NKX2-1 [3]: increase its expression level; also recorded: Positive impact
- impact on expression of OTX2 ([4]; dynamic profile analysis, FIG. 4): positive impact
- factor contribution on expression of OTX2 ([4]; positive impact): low
- factor contribution on expression of SIX3 ([4]; positive impact, model optimized for maximal expression of SIX3, 3-day treatment): 5
- expression level of FEZF2 when the effector is removed [5]: 1700
- expression level of SIX3 when the effector is removed [5]: 1000
- expression level of OTX2 when the effector is removed [5]: 5000
- expression level of PAX6 in the absence of the effector [6]: 10000
- expression level of NKX2-2 in the absence of the effector [6]: 200
- expression level of NKX2-1 in the absence of the effector [6]: 3000
- impact on expression of FEZF2 [7]: positive impact
- factor contribution on expression of FEZF2 [7]: 12

B1: BDNF: brain-derived neurotrophic factor, ligand of BDNFR signaling pathway (protein, UniProt P23560 19-247, looked up)
Neurotrophic factor BDNF …: APMKEANIRGQGGLAYPGVRTHGTLESVNGPKAGSRGLTSLADTFEHVIEELLDEDQKVRPNEENNKDADLYTSRVMLSSQVPLEPPLLFLLEEYKNYLDAANMSMRVRRHSDPARRGELSVCDSISEWVTAADKKTAVDMSGGTVTVLEKVPVSKGQLKQYFYETKCNPMGYTKEGCRGIDKRHWNSQCRTTQSYVRALTMDSKKRIGWRFIRIDTSCVCTLTIKRGR
- effect on expression of somatostatin [1]: did not change
- contribution to expression of PVALB (Parvalbumin) [1]: positive contribution
- factor contribution on expression of PVALB [2]: 14.6
- impact on expression of PVALB [2]: increase its expression level; also recorded: positive impact
